Measurements reported in patent US4303785A, “Antitumor anthracycline antibiotics” (priority 1978, dated 1981).
Where two headings read alike, the source gives them in different places.

Tested on: L1210 cells
Assay: animal or person
Type: in vivo, CDF1 mice
Conditions: for response vs control in vivo at 0.15 mg/kg / response vs control in vivo at 0.31 mg/kg / response vs control in vivo at 0.625 mg/kg / response vs control in vivo at 1.25 mg/kg / response vs control in vivo at 2.5 mg/kg / response vs control in vivo at 5 mg/kg: Mus musculus, L1210, ip, 1080 h; for response vs control in vivo at 1.25 mg/kg: read-out: Antitumor Activity (T/C, prolongation rate of survival day), 1.25 mg/kg/day i.p., once daily for 10 days; for response vs control in vivo at 2.5 mg/kg: read-out: Antitumor Activity (T/C, prolongation rate of survival day), 2.5 mg/kg/day i.p., once daily for 10 days; for response vs control in vivo at 5 mg/kg: read-out: Antitumor Activity (T/C, prolongation rate of survival day), 5 mg/kg/day i.p., once daily for 10 days
Experimental: D. Representative compounds of general formula I" were tested against experimental animal tumors as follows: […]
CDF1 mice were administered intraperitoneally (i.p.) with 1×10^5 cells/mouse of L1210 cells. After 24 hours had elapsed since inoculation, the mice were administered the test compounds intraperitoneally once daily for 10 consecutive days and observed for a 45 day period.
The antitumor activity was shown by the prolongation rate of survival day (T/C, %) to the survival day of control mice injected with physiological saline.

[1] = 5 mg/kg/day i.p., once daily for 10 days
[2] = read-out: Antitumor Activity (T/C, prolongation rate of survival day), 0.15 mg/kg/day i.p., once daily for 10 days
[3] = read-out: Antitumor Activity (T/C, prolongation rate of survival day), 0.31 mg/kg/day i.p., once daily for 10 days
[4] = read-out: Antitumor Activity (T/C, prolongation rate of survival day), 0.625 mg/kg/day i.p., once daily for 10 days
[5] = 0.15 mg/kg/day i.p., once daily for 10 days
[6] = 0.31 mg/kg/day i.p., once daily for 10 days
[7] = 0.625 mg/kg/day i.p., once daily for 10 days
[8] = 1.25 mg/kg/day i.p., once daily for 10 days
[9] = 2.5 mg/kg/day i.p., once daily for 10 days

COc1cccc2c1C(=O)c1c(O)c3c(c(O)c1C2=O)C[C@@](O)(C(=O)CO)C[C@@H]3O[C@H]1C[C@H](N)[C@H](OC(C)OCC(C)C)[C@H](C)O1 (single isomer, unassigned) [Example 9-a, 4'-O-(1-isobutyloxyethyl) adriamycin a]
Antitumor Activity (T/C, prolongation rate of survival day) [1]: 257%
response vs control in vivo at 0.15 mg/kg [2]: 105%
response vs control in vivo at 0.31 mg/kg [3]: 105%
response vs control in vivo at 0.625 mg/kg [4]: 112%
response vs control in vivo at 1.25 mg/kg: 125%
response vs control in vivo at 2.5 mg/kg: 151%

COc1cccc2c1C(=O)c1c(O)c3c(c(O)c1C2=O)C[C@@](O)(C(=O)CO)C[C@@H]3O[C@H]1C[C@H](N)[C@H](OC2CCCC(COC(C)=O)O2)[C@H](C)O1 (stereo partly shown) [Example 6, 4'-O-(6-acetoxymethyltetrahydropyranyl) adriamycin]
response vs control in vivo at 0.15 mg/kg [2]: 100%
response vs control in vivo at 0.31 mg/kg [3]: 88%
response vs control in vivo at 0.625 mg/kg [4]: 106%
response vs control in vivo at 1.25 mg/kg: 118%
response vs control in vivo at 2.5 mg/kg: 118%
response vs control in vivo at 5 mg/kg: 141%

COc1cccc2c1C(=O)c1c(O)c3c(c(O)c1C2=O)C[C@@](O)(C(=O)CO)C[C@@H]3O[C@H]1C[C@H](N)[C@H](OC(C)OCC(C)C)[C@H](C)O1 (single isomer, unassigned) [Example 9-b, 4'-O-(1-isobutyloxyethyl) adriamycin b]
Antitumor Activity (T/C, prolongation rate of survival day) [5]: 99%
Antitumor Activity (T/C, prolongation rate of survival day) [6]: 118%
Antitumor Activity (T/C, prolongation rate of survival day) [7]: 105%
Antitumor Activity (T/C, prolongation rate of survival day) [8]: 118%
Antitumor Activity (T/C, prolongation rate of survival day) [9]: 158%
Antitumor Activity (T/C, prolongation rate of survival day) [1]: 303%

COc1cccc2c1C(=O)c1c(O)c3c(c(O)c1C2=O)C[C@@](O)(C(=O)COC(C)=O)C[C@@H]3O[C@H]1C[C@H](N)[C@H](OC2CCCCO2)[C@H](C)O1 (single isomer, unassigned) [Example 1-b, 14-O-acetyl-4'-O-tetrahydropyranyl adriamycin b]
Antitumor Activity (T/C, prolongation rate of survival day) [6]: 145%
Antitumor Activity (T/C, prolongation rate of survival day) [7]: 184%
Antitumor Activity (T/C, prolongation rate of survival day) [8]: 220%
Antitumor Activity (T/C, prolongation rate of survival day) [9]: 218%
Antitumor Activity (T/C, prolongation rate of survival day) [1]: 241%

COc1cccc2c1C(=O)c1c(O)c3c(c(O)c1C2=O)C[C@@](O)(C(=O)CO)C[C@@H]3O[C@H]1C[C@H](N)[C@H](OC(C)OC2CCCCC2)[C@H](C)O1 (single isomer, unassigned) [Example 11-a, 4'-O-(1-cyclohexyloxyethyl) adriamycin a]
Antitumor Activity (T/C, prolongation rate of survival day) [1]: 184%
response vs control in vivo at 0.15 mg/kg [2]: 105%
response vs control in vivo at 0.31 mg/kg [3]: 99%
response vs control in vivo at 0.625 mg/kg [4]: 105%
response vs control in vivo at 1.25 mg/kg: 118%
response vs control in vivo at 2.5 mg/kg: 125%

COc1cccc2c1C(=O)c1c(O)c3c(c(O)c1C2=O)C[C@@](O)(C(=O)CO)C[C@@H]3O[C@H]1C[C@H](N)[C@H](OC(C)OCCCCCC(C)C)[C@H](C)O1 (single isomer, unassigned) [Example 10-b, 4'-O-(1-(6-methylheptyloxy)ethyl) adriamycin b]
Antitumor Activity (T/C, prolongation rate of survival day) [5]: 105%
Antitumor Activity (T/C, prolongation rate of survival day) [6]: 105%
Antitumor Activity (T/C, prolongation rate of survival day) [7]: 112%
Antitumor Activity (T/C, prolongation rate of survival day) [8]: 112%
Antitumor Activity (T/C, prolongation rate of survival day) [9]: 105%
Antitumor Activity (T/C, prolongation rate of survival day) [1]: 118%

COc1cccc2c1C(=O)c1c(O)c3c(c(O)c1C2=O)C[C@@](O)(C(C)=O)C[C@@H]3O[C@H]1C[C@H](N)[C@H](OC(C)OCC(C)C)[C@H](C)O1 (single isomer, unassigned) [Example 17-a, 4'-O-(1-isobutyloxyethyl) daunomycin a]
Antitumor Activity (T/C, prolongation rate of survival day) [1]: 156%
response vs control in vivo at 0.15 mg/kg [2]: 100%
response vs control in vivo at 0.31 mg/kg [3]: 100%
response vs control in vivo at 0.625 mg/kg [4]: 100%
response vs control in vivo at 1.25 mg/kg: 100%
response vs control in vivo at 2.5 mg/kg: 119%

COc1cccc2c1C(=O)c1c(O)c3c(c(O)c1C2=O)C[C@@](O)(C(=O)CO)C[C@@H]3O[C@H]1C[C@H](N)[C@H](OC2CCCO2)[C@H](C)O1 (single isomer, unassigned) [Example 5-a, 4'-O-tetrahydrofuranyl adriamycin a]
Antitumor Activity (T/C, prolongation rate of survival day) [5]: 115%
Antitumor Activity (T/C, prolongation rate of survival day) [6]: 115%
Antitumor Activity (T/C, prolongation rate of survival day) [7]: 135%
Antitumor Activity (T/C, prolongation rate of survival day) [8]: 189%
Antitumor Activity (T/C, prolongation rate of survival day) [9]: 288%
Antitumor Activity (T/C, prolongation rate of survival day) [1]: 212%

COc1cccc2c1C(=O)c1c(O)c3c(c(O)c1C2=O)C[C@@](O)(C(=O)CO)C[C@@H]3O[C@H]1C[C@H](N)[C@H](OC(C)OC2CCCCC2)[C@H](C)O1 (single isomer, unassigned) [Example 11-b, 4'-O-(1-cyclohexyloxyethyl) adriamycin b]
Antitumor Activity (T/C, prolongation rate of survival day) [5]: 105%
Antitumor Activity (T/C, prolongation rate of survival day) [6]: 105%
Antitumor Activity (T/C, prolongation rate of survival day) [7]: 105%
Antitumor Activity (T/C, prolongation rate of survival day) [8]: 105%
Antitumor Activity (T/C, prolongation rate of survival day) [9]: 125%
Antitumor Activity (T/C, prolongation rate of survival day) [1]: 145%

COc1cccc2c1C(=O)c1c(O)c3c(c(O)c1C2=O)C[C@@](O)(C(=O)COC(C)=O)C[C@@H]3O[C@H]1C[C@H](N)[C@H](OC2CCCCO2)[C@H](C)O1 (single isomer, unassigned) [Example 1-a, 14-O-acetyl-4'-O-tetrahydropyranyl adriamycin a]
Antitumor Activity (T/C, prolongation rate of survival day) [6]: 203%
Antitumor Activity (T/C, prolongation rate of survival day) [9]: 239%
response vs control in vivo at 0.625 mg/kg [4]: 195%
response vs control in vivo at 1.25 mg/kg: 228%
response vs control in vivo at 5 mg/kg: 225%

CCOC(C)O[C@@H]1[C@H](C)O[C@@H](O[C@H]2C[C@](O)(C(C)=O)Cc3c(O)c4c(c(O)c32)C(=O)c2c(OC)cccc2C4=O)C[C@@H]1N (single isomer, unassigned) [Example 16-b, 4'-O-(1-ethyloxyethyl) daunomycin b]
Antitumor Activity (T/C, prolongation rate of survival day) [5]: 90%
Antitumor Activity (T/C, prolongation rate of survival day) [6]: 96%
Antitumor Activity (T/C, prolongation rate of survival day) [7]: 108%
Antitumor Activity (T/C, prolongation rate of survival day) [8]: 112%
Antitumor Activity (T/C, prolongation rate of survival day) [9]: 133%
Antitumor Activity (T/C, prolongation rate of survival day) [1]: 247%

COc1cccc2c1C(=O)c1c(O)c3c(c(O)c1C2=O)C[C@@](O)(C(C)=O)C[C@@H]3O[C@H]1C[C@H](N)[C@H](OC2CCCC(OC)O2)[C@H](C)O1 (single isomer, unassigned) [Example 14-b, 4'-O-(6-methoxytetrahydropyranyl) daunomycin b]
Antitumor Activity (T/C, prolongation rate of survival day) [5]: 94%
Antitumor Activity (T/C, prolongation rate of survival day) [6]: 100%
Antitumor Activity (T/C, prolongation rate of survival day) [7]: 106%
Antitumor Activity (T/C, prolongation rate of survival day) [8]: 113%
Antitumor Activity (T/C, prolongation rate of survival day) [9]: 131%
Antitumor Activity (T/C, prolongation rate of survival day) [1]: 463%

COc1cccc2c1C(=O)c1c(O)c3c(c(O)c1C2=O)C[C@@](O)(C(=O)CO)C[C@@H]3O[C@H]1C[C@H](N)[C@H](OC2CCCO2)[C@H](C)O1 (stereo partly shown) [Example 4, 4'-O-tetrahydrofuranyl adriamycin]
Antitumor Activity (T/C, prolongation rate of survival day) [8]: 179%
Antitumor Activity (T/C, prolongation rate of survival day) [9]: 360%
Antitumor Activity (T/C, prolongation rate of survival day) [1]: 314%
response vs control in vivo at 0.15 mg/kg (0.15 mg/kg/day i.p., once daily for 10 days, read-out: Antitumor Activity (T/C, prolongation rate of survival day)): 105%
response vs control in vivo at 0.31 mg/kg (0.31 mg/kg/day i.p., once daily for 10 days, read-out: Antitumor Activity (T/C, prolongation rate of survival day)): 111%
response vs control in vivo at 0.625 mg/kg (0.625 mg/kg/day i.p., once daily for 10 days, read-out: Antitumor Activity (T/C, prolongation rate of survival day)): 136%
